Data on 1 molecule can be found in patent US20220118116A1, “ADHESIVE/ADSORPTION SWITCH ON NANOPARTICLES TO INCREASE TUMOR UPTAKE AND DELAY TUMOR CLEARANCE” (The Johns Hopkins University, priority 2019, published 2022).

Read-outs that look alike come from different tables or passages of the source.

As a reminder, the IC50 is the midpoint of a concentration-inhibition curve.

The subject of data set [1] is MDA-MB-231 (ATCC). Briefly: IC50 on cell monolayers (MTT assay). Format: cell-based, human. As to conditions: 6-hour incubation, read-out: IC50 of free cisplatin. On the procedure:
(§1) To determine the IC50 of liposomal cisplatin and of free cisplatin, 20,000 cells per well were plated in 96-well plates. A range of concentrations of sterilized liposomes (containing or not cisplatin) or of free cisplatin was added to the wells mixed in media (with 10% FBS) at pH 7.4 and pH 6.5. Upon completion of a 6-hour incubation, cells were washed twice with PBS, and 10% FBS-supplemented fresh media was then added to wells. After two doubling times an MTT assay (Promega, Madison, Wis.) was used (following the vendor's instructions) to evaluate percent cell viability. Absorbance was read at 570 nm.
as §1, with “sterile” for “sterilized”, “6 hour” for “6-hour”

For data set [2], the system named is MDA-MB-231 (ALN2). Briefly: IC50 on cell monolayers (MTT assay). Format: cell-based, human. The following applies: 6-hour incubation, read-out: IC50 of free cisplatin. On the procedure: as §1
as §1, with “sterile” for “sterilized”, “6 hour” for “6-hour”

The test system of data set [3] is MDA-MB-436 (ATCC). Description: IC50 on cell monolayers (MTT assay). Format: cell-based, human. As to conditions: 6-hour incubation, read-out: IC50 of free cisplatin. On the procedure: as §1
as §1, with “sterile” for “sterilized”, “6 hour” for “6-hour”

Data set [4] has as its system MDA-MB-231 (LUNG1). Briefly: IC50 on cell monolayers (MTT assay). The data set is classed as cell-based, human. The following applies: 6-hour incubation, read-out: IC50 of free cisplatin. On the procedure:
as §1
as §1, with “sterile” for “sterilized”, “6 hour” for “6-hour”

Data set [5] relates to MDA-MB-231 (PRI3). Briefly: IC50 on cell monolayers (MTT assay). The data set is classed as cell-based, human. The following applies: 6-hour incubation, read-out: IC50 of free cisplatin. On the procedure: as §1
as §1, with “sterile” for “sterilized”, “6 hour” for “6-hour”
For orientation: Tetrazolium assays rely on reduction of a dye to a coloured formazan, in cell work by metabolically active cells.

The conditions of data set [6]: Leite et al., 2012; cited from earlier work.
The subject of data set [7] is spontaneous MDA-MB-231 axillary lymph node (ALN) metastases. Briefly: Growth control of spontaneous TNBC metastases in vivo (cisplatin). The following applies: 7.5 mg/Kg i.v., three times in five-day intervals.

Turning to `N.N.[Cl][Pt][Cl]` [free cisplatin, cis-diamminedichloroplatinum (II)], the IC50 came to 47.7 ± 4.4 µM in data set [1] (pH 6.5); 45.2 ± 8.2 µM in data set [1] (pH 7.4); 40.2 ± 7.4 µM in data set [2] (pH 6.5); 39.2 ± 5.9 µM in data set [2] (pH 7.4); 3.2 ± 0.73 µM in data set [3] (pH 6.5); 2.46 ± 0.9 µM in data set [3] (pH 7.4). The IC50 was 42.6 ± 6.2 µM in data set [4] (pH 6.5), 40.2 ± 6.4 µM in data set [4] (pH 7.4), 37.7 ± 13.4 µM in data set [5] (pH 6.5) and 32.4 ± 7.8 µM in data set [5] (pH 7.4). Further, in data set [6], the “reported MTD” value is 7.5 mg/kg. The animal survival entry in data set [7] was “shortest animal survival”. The “animals euthanized because of weight loss” value in data set [7] was 100%.
